Where two headings read alike, the source gives them in different places. *1 amine or outer side, *2 acyl side, *3 side chain or, on linkers, in order; H or OH if unused. Where a SMILES comes first, the peptide text is derived from it. Bridges are numbered along the chain shown (N, C = ends). [ ]: non-standard residue; d: D form. The star is where a group is joined. Ttds = 1,13-diamino-4,7,10-trioxatridecan-succinamic acid, NCCCOCCOCCOCCCNC(=O)CCC(=O)*; DOTA(Ga) = O=C1CN2CCN3CCN(CC(=O)*)CCN(CC2)CC(=O)[O][Ga]([O]1)[O]C(=O)C3; DOTA(Lu) = O=C1CN2CCN3CCN(CC(=O)*)CCN(CC2)CC(=O)[O][Lu]([O]1)[O]C(=O)C3; X3 = O=C(O)CN1CCN(CC(=O)O)CCN(CC(=O)NCCCOCCOCCOCCCN*)CCN(CC(=O)O)CC1; NH(1-deoxy-D-glucityl) = OC[C@@H](O)[C@@H](O)[C@H](O)[C@@H](O)CN*; DOTA = O=C(O)CN1CCN(CC(=O)O)CCN(CC(=O)*)CCN(CC(=O)O)CC1; Trp(5-Cl) = N[C@@H](Cc1c[nH]c2ccc(Cl)cc12)C(=O)O; Pyridine(2,6-diCH2) = c1cc(C[*:1])nc(C[*:2])c1; Pro(4R-NH2) = N[C@H]1CN[C@H](C(=O)O)C1; mXylylene = c1cc(C[*:1])cc(C[*:2])c1; Glutaryl = O=C(CCCC(=O)[*:2])[*:1]; X7 = c1cc(CSCCN[*:2])cc(C[*:1])c1; Hyp = O=C(O)[C@@H]1C[C@@H](O)CN1; X1 = O=C(CN1CCC(N[*:1])CC1)[*:2]; Cysteamide = C(CS[*:3])N[*:1]; Suc = O=C(CCC(=O)[*:2])[*:1]; hLeu = CC(C)CC[C@H](N)C(=O)O; Api = NC1(C(=O)O)CCNCC1; Thp = NC1(C(=O)O)CCOCC1; Aib = CC(C)(N)C(=O)O
T1: GIPR (CHO-K1-hGIPR cells) (Homo sapiens, UniProt P48546)
T1 construct: host or cells: CHO-K1
T1 sequence (P48546 22-466): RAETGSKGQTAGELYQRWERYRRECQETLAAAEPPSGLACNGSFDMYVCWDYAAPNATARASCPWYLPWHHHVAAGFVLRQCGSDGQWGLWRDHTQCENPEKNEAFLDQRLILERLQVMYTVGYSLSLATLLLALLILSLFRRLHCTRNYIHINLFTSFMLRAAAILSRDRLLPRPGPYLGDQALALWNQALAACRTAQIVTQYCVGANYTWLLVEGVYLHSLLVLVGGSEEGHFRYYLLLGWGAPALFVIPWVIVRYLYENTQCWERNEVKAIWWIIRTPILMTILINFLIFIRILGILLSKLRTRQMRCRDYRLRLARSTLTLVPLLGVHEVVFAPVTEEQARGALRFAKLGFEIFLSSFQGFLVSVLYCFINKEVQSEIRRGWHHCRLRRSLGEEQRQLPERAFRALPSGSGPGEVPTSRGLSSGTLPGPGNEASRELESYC

T2: human GIP receptor (bioGIPR) (Homo sapiens, UniProt P48546)
T2 construct: Biotinylate extracellular of the human GIP receptor (bioGIPR, Proteros biostructures GmbH, lot #02/2b); purchased Proteros biostructures GmbH lot #02/2b
T2 sequence (P48546 22-138 limits assumed): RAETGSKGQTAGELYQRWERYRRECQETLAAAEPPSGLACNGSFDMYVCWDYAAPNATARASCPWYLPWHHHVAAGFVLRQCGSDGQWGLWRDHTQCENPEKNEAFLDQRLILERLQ


Tests used:
[1] = biological target: T1, GIPR (CHO-K1-hGIPR cells); test: FACS binding assay
How it was run: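 Steps: detach CHO-K1-hGIPR cells (Accutase); wash in PBS/1% FCS; adjust to 500.000 cells per mL; wash ice-cold; incubate APC-streptavidin 1 μg/mL, 30 min on ice; wash twice; acquire on flow cytometer; fit MFI-concentration data with a four-parameter logistic model.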

[2] = biological target: T2, human GIP receptor (bioGIPR); test: Surface plasmon resonance (SPR) based binding assay; settings: for t1/2 Category: SPR dissociation half-life
Protocol: Surface plasmon resonance (SPR) studies were performed using a Biacore™ T200 SPR system. Briefly, polarized light is directed towards a gold-labeled sensor surface, and minimum intensity reflected light is detected. The angle of reflected light changes as molecules bind and dissociate.
Biotinylate extracellular of the human GIP receptor (bioGIPR, Proteros biostructures GmbH, lot #02/2b) was captured on a biotin capture chip (Biotin CAPture Kit, Series S, GE Healthcare, Cat #28-9202-34). bioGIPR was diluted in Running Buffer (HBST from Xantec Analytics; […], 0.05% Tween20, 0.1% DMSO) to a final concentration 100 nM and than flushed over the Fc-capture chip to immobilized ˜3500 RUs.
Stock solutions of test compounds were prepared by dissolving each compound in DMSO. DMSO stock solution were diluted 1:1000 in Running Buffer without DMSO. Further sequential dilutions were made with Running Buffer containing 0.1% DMSO. SPR binding analyses were performed in Single Cycle Kinetic (SCK) mode at 25° C. Flow cell without immobilized bioGIPR served as reference flowcell. After each SCK run, bioGIRP and the Biotin Capture Reagent was removed with Regeneration Solution (6 M Guanidium, 0.75 M NaOH).
In between every three SCK measurements, a blank run with Running Buffer instead of test compound was included to correct for baseline drifts (double blanking method).
For each test compound, SPR raw data in the form of resonance units (RU) were plotted as sensorgrams using the Biacore™ T200 control software. The signal from the blank sensorgram was subtracted from that of the test compound sensorgram (blank corrected). The blank corrected sensorgram was corrected for baseline drift by subtracting the sensorgram of a SCK run without the test compound (running buffer only). The association rate (kon), dissociation rate (koff), dissociation constant (KD), and t1/2 were calculated from blank corrected SPR data using the 1:1 Langmuir binding model from the Biacore™ T200 evaluation software. Raw data and fit results were imported as text files in IDBS. The pKD value (negative decadic logarithm of dissociation constant) was calculated in the IDBS excel template.

[3] = biological target: human Gastric Inhibitory Peptide Receptor (human) (UniProt P48546); test: FACS competition with GIP-057 on CHO-K1-hGIPR cells; pIC50 category A: >8.0
[4] = competition with 20 nM GIP-057, 4° C., 1 hour, read-out: pIC50 Category (converted)
[5] = Single Cycle Kinetic mode, 25° C.
[6] = SPR, Single Cycle Kinetic mode, 25° C., 1:1 Langmuir binding model, read-out: pKD Category (converted)

| IC50 [1, 4] | t1/2 Category [2, 5] | Kd [2, 6] | IC50 ([1]; competition with 20 nM GIP-057, 4° C. for 1 hour, read-out: pIC50 Category (converted)) | pIC50 [3] | Molecule | IC50 ([1]; pIC50 Category, competition with 20 nM GIP-057, 4° C., 1 hour) | Kd [2] |
| --- | --- | --- | --- | --- | --- | --- | --- |
| < 10 nM | A (t1/2 values>15 min) | < 1 nM | – | – | CC[C@H](C)[C@@H]1NC(=O)[C@H](CC(C)C)NC(=O)C2(CCN(C(C)=O)CC2)NC(=O)[C@@H](NC(=O)[C@@H](CC(C)C)NC(=O)[C@H](CCC(=O)O)NC(=O)[C@@H]2CCCN2C(=O)[C@H](Cc2c[nH]c3ccc(Cl)cc23)NC(=O)[C@H](Cc2c[nH]c3ccccc23)NC(=O)[C@H](CC(=O)O)NC(=O)CCC(=O)NCCCOCCOCCOCCCNC(=O)CN2CCN(CC(=O)O)CCN(CC(=O)O)CCN(CC(=O)O)CC2)CSCc2cccc(c2)CSCCNC1=O [GIP-097, DOTA-Ttds-Asp-Trp-5Clw-Pro-Glu-leu-[Cys(3MeBn)-Apc(Ac)-Leu-Ile-AET]] ({X3-Suc}-DW[Trp(5-Cl)]PE[dL]C[Api](Ac)LI; linker 7-C via X7) | – | – |
| < 10 nM | A (t1/2 values>15 min) | < 1 nM | – | – | CC[C@H](C)[C@@H]1NC(=O)[C@H](CC(C)C)NC(=O)C2(CCOCC2)NC(=O)[C@@H](NC(=O)[C@@H](CC(C)C)NC(=O)[C@H](CCC(=O)O)NC(=O)[C@@H]2C[C@@H](O)CN2C(=O)[C@H](Cc2c[nH]c3ccc(Cl)cc23)NC(=O)[C@H](Cc2c[nH]c3ccccc23)NC(=O)CCC(=O)O)CSCc2cccc(n2)CSC[C@@H](C(=O)NC2CCN(CC(=O)N[C@@H](CCCCNC(=O)CN3CCN(CC(=O)O)CCN(CC(=O)O)CCN(CC(=O)O)CC3)C(N)=O)CC2)NC1=O [GIP-109, HO-Succinyl-Trp-5Clw-Hyp-Glu-leu-[Cys(2Lut)-Thp-Leu-Ile-Cys]-APAc-Lys(DOTA)-NH2] (Suc-W[Trp(5-Cl)][Hyp]E[dL]C[Thp]LIC[X1]K(DOTA)-NH2; linker 6-10 via Pyridine(2,6-diCH2)) | – | – |
| – | A (t1/2 values>15 min) | 1 to 7.94 nM | < 10 nM | – | CC[C@H](C)[C@@H]1NC(=O)[C@H](CC(C)C)NC(=O)C2(CCOCC2)NC(=O)[C@@H](NC(=O)[C@@H](CC(C)C)NC(=O)[C@H](CCCCN)NC(=O)[C@@H]2C[C@@H](O)CN2C(=O)[C@H](Cc2c[nH]c3ccc(Cl)cc23)NC(=O)[C@H](Cc2c[nH]c3ccccc23)NC(=O)[C@H](CC(=O)O)NC(C)=O)CSCc2cccc(n2)CSC[C@@H](C(N)=O)NC1=O [GIP-375, Ac-Asp-Trp-5Clw-Hyp-Lys-leu-[Cys(2Lut)-Thp-Leu-Ile-Cys]-NH2] (Ac-DW[Trp(5-Cl)][Hyp]K[dL]C[Thp]LIC-NH2; linker 7-11 via Pyridine(2,6-diCH2)) | – | – |
| – | – | – | – | > 8 pic50 | {DOTA-Ttds}-DW[Trp(5-Cl)]PE[dL]C[Aib][hLeu]I[Cysteamide] (linker (positions not given here) via mXylylene; not fully specified (bridges); printed as DOTA-Ttds-Asp-Trp-5Clw-Pro-Glu-leu-[Cys(3MeBn)-Aib-Hle-Ile-AET]) [DOTA-Ttds-Asp-Trp-5Clw-Pro-Glu-leu-[Cys(3MeBn)-Aib-Hle-Ile-AET]] | – | – |

| Molecule | IC50 [1, 4] | t1/2 Category [2, 5] | Kd [2, 6] | IC50 ([1]; competition with 20 nM GIP-057, 4° C. for 1 hour, read-out: pIC50 Category (converted)) | pIC50 [3] | IC50 ([1]; pIC50 Category, competition with 20 nM GIP-057, 4° C., 1 hour) | Kd [2] |
| --- | --- | --- | --- | --- | --- | --- | --- |
| CC[C@H](C)[C@@H]1NC(=O)[C@H](CC(C)C)NC(=O)C2(CCN(C(=O)CN3CCN4CCN5CCN(CC3)CC(=O)[O][Ga]([O]C(=O)C5)[O]C(=O)C4)CC2)NC(=O)[C@@H](NC(=O)[C@@H](CC(C)C)NC(=O)[C@H](CCC(=O)O)NC(=O)[C@@H]2C[C@@H](N)CN2C(=O)[C@H](Cc2c[nH]c3ccc(Cl)cc23)NC(=O)[C@H](Cc2c[nH]c3ccccc23)NC(=O)[C@H](CC(=O)O)NC(=O)CCCC(=O)NC[C@H](O)[C@@H](O)[C@H](O)[C@H](O)CO)CSCc2cccc(n2)CSC[C@@H](C(=O)NC2CCN(CC(=O)N[C@H](CCC(=O)NC[C@H](O)[C@@H](O)[C@H](O)[C@H](O)CO)C(N)=O)CC2)NC1=O [GIP-069, Gallium-Complex of AGLU-Glutar-Asp-Trp-5Clw-Tap-Glu-leu-[Cys(2Lut)-Apc(DOTA)-Leu-Ile-Cys]-APAc-glu(AGLU)-NH2] ({NH(1-deoxy-D-glucityl)-Glutaryl}-DW[Trp(5-Cl)][Pro(4R-NH2)]E[dL]C[Api](DOTA(Ga))LIC[X1][dE](NH(1-deoxy-D-glucityl))-NH2; linker 7-11 via Pyridine(2,6-diCH2)) | < 10 nM | A (t1/2 values>15 min) | < 1 nM | – | – | – | – |
| CC[C@H](C)[C@@H]1NC(=O)[C@H](CC(C)C)NC(=O)C2(CCN(C(=O)CN3CCN4CCN5CCN(CC3)CC(=O)[O][Lu]([O]C(=O)C5)[O]C(=O)C4)CC2)NC(=O)[C@@H](NC(=O)[C@@H](CC(C)C)NC(=O)[C@H](CCC(=O)O)NC(=O)[C@@H]2C[C@@H](N)CN2C(=O)[C@H](Cc2c[nH]c3ccc(Cl)cc23)NC(=O)[C@H](Cc2c[nH]c3ccccc23)NC(=O)[C@H](CC(=O)O)NC(=O)CCCC(=O)NC[C@H](O)[C@@H](O)[C@H](O)[C@H](O)CO)CSCc2cccc(n2)CSC[C@@H](C(=O)NC2CCN(CC(=O)N[C@H](CCC(=O)NC[C@H](O)[C@@H](O)[C@H](O)[C@H](O)CO)C(N)=O)CC2)NC1=O [GIP-066, Lutetium-Complex of AGLU-Glutar-Asp-Trp-5Clw-Hyp-Glu-leu-[Cys(2Lut)-Apc(DOTA)-Leu-Ile-Cys]-APAc-glu(AGLU)-NH2] ({NH(1-deoxy-D-glucityl)-Glutaryl}-DW[Trp(5-Cl)][Pro(4R-NH2)]E[dL]C[Api](DOTA(Lu))LIC[X1][dE](NH(1-deoxy-D-glucityl))-NH2; linker 7-11 via Pyridine(2,6-diCH2)) | – | A (t1/2 values>15 min) | – | – | – | < 10 nM | < 1 nM |

Source: US20250296971A1, “GASTRIC INHIBITORY PEPTIDE RECEPTOR LIGANDS” (priority 2021, published 2025)
